Assay results reported in EP2246037A2, “Anti-aging and whitening properties of quercetin, 18a-glycyrrhetinic acid, hederagenin and its derivatives” (Korres S.A. Natural Products, priority 2009, dated 2010).

Columns and labels:
[1] = system: HFL-1 human diploid fibroblasts; assay: Lifespan (cumulative population doublings) and morphology of fibroblasts under continuous treatment; assay type: cell-based; parameters: key to cpd: cumulative population doublings: CPD=Σ LOG[Nfinal/Ninitial]/LOG[2]; conditions: for appearance of the senescent phenotype: summary of sections 1 and 2
Description: (§1) The steps, methods and results that were obtained regarding the anti-aging properties of the examined substances are the following: • 1) Study of the lifespan of human diploid fibroblasts in vitro in the presence of the substances. • 1.1. HFL-1 human diploid fibroblasts (HDFs) were used in in vitro conditions (growth at 37°C, 5% CO2 and 95% humidity). • 1.2. The cells were maintained in Dulbecco's modified Eagle's medium (DMEM ®; Invitrogen Life Technologies Inc.) supplemented with 10% (v/v) fetal calf serum, 100 Units/ml penicillin, 100 µg/ml strepromycin, 2 mM glutamine and 1% (v/v) non-essential amino acids (complete medium). • 1.3. The cells were constantly cultured in culture medium supplemented with the substances [final concentration for quercetin (QUER), 18α-glycyrrhetinic acid (18α GA), and hederagenin (HED): 2 µg/ml and for quercetin caprylate (QU-CAP) three concentrations were applied: 0.5, 2 and 5 µg/ml]. Quercetin, 18α-glycyrrhetinic acid and hederagenin were diluted in DMSO (dimethyl sulfoxide) whereas quercetin caprylate was diluted in caprilic/capric triglycerides (CAP). Therefore, the control cultures were incubated in medium supplemented with 0.1% DMSO or 0.1% CAP. • 1.4. The cells were replenished with fresh media supplemented with the substances or the diluents every 24 h and their numbers were examined using a Coulter Z2 ® counter (Coulter Corporation) until they reached senescence (approximately after 13 weeks). The cumulative population doublings performed by each culture were calculated using the following formula: CPD=Σ[PD] where PD=LOG[Nfinal/Ninitial]/LOG[2], where N final represents the number of cells that were measured when each culture reached confluence and N initial represents the number of cells that was initially seeded. • 1.5. Photographs of the cells maintained in cell culture and treated with the various substances for the same time period were taken. • 1.6. […] More specifically, cells that were incubated with quercetin caprylate gave up to 2.8% more population doublings as compared to the population doublings performed by the relative control cultures. Cells that were incubated with the other substances gave up to 2.9% more population doublings as compared to their relative control cultures. • 1.7. […] Cells that were treated with either of the tested substances maintained the young morphology for longer as compared to the control cultures (DMSO-treated and CAP-treated). […] HFL-1 HDFs were cultured as described in 1.1-1.4 for 10 consecutive weeks and were then subjected to β-galactosidase activity staining. • 1.2. Briefly, 10^5 cells from each culture were seeded in 6-well plates. After 24 h cells were washed with PBS (phosphate buffered saline), fixed in 0.2% glutaraldehyde and 2% formaldehyde for 5 min, washed again with PBS, and finally stained for 24 h at 37 °C in the absence of CO2, in staining solution (150 mM NaCl, 2 mM MgCl2, 5 mM K3Fe(CN)6, 40 mM citric acid, and 12 mM sodium phosphate, pH 6.0) containing 1 mg/ml 5-bromo-4-chloro-3-indolyl-β-D-galactoside. Photographs were then taken. • 1.3. […] HFL-1 HDFs that have senesced in vitro were used (growth at 37°C, 5% CO2 and 95% humidity). More specifically, middle aged HFL-1 HDFs (cpd 59) and terminally senescent HFL-1 HDFs (cpd 65) that had senesced in the absence of any substance were used. • 3.2. The cells were seeded and maintained in complete medium (see 1.2). Culture medium supplemented with the substances [final concentration for quercetin (QUER), 18α-glycyrrhetinic acid (18α GA), and hederagenin (HED): 2 µg/ml and for quercetin caprylate (QU-CAP) three concentrations were applied: 0.5, 2 and 5 µg/ml] or the diluents (0.1% DMSO or 0.1% CAP) were added 24 h later. The cells were replenished with fresh media supplemented with the substances or the diluents every 24 h for 1 week and their numbers were then examined using a Coulter Z2 ® counter (Coulter Corporation). • 3.3. […]

[2] = system: Mouse melanocytes (B10F16 cell line); assay: Cellular whitening of melanocytes (cell pellet photographs); assay type: cell-based; conditions: 72 h
Description: The steps, methods and results that were obtained regarding the whitening properties of the examined substances are the following: • A) Cellular whitening of melanocytes. • A.1. Mouse melanocytes (B10F16 cell line) were used in in vitro conditions (growth at 37°C, 5% CO2 and 95% humidity). • A.2. The cells were maintained in Dulbecco's modified Eagle's medium (DMEM®; Invitrogen Life Technologies Inc.) supplemented with 10% (v/v) fetal calf serum, 100 Units/ml penicillin, 100 µg/ml strepromycin, 2 mM glutamine and 1% (v/v) non-essential amino acids (complete medium). • A.3. 10^5 cells were seeded in petri dishes and the following day they were fed with medium supplemented with the substances [final concentration for all substances: 5 µg/ml and 10 µg/ml]. Quercetin (QUER), 18α-glycyrrhetinic acid (18α GA) and hederagenin (HED) were diluted in DMSO whereas quercetin caprylate was diluted in caprilic/capric triglycerides (CAP). Therefore, the control cultures were incubated in medium supplemented with 0.1% DMSO or 0.1% CAP. The media were replenished every 24 h and the cells were kept under these conditions constantly for 72 h. Cells were then collected and pelleted and the cell pellet was photographed. • A.4. […] The result was positively correlated to the concentration of quercetin used. • B) Detection of tyrosinase expression. • B.1. Mouse melanocytes were cultured as described in A.1.-A.3. After 72 h of treatment, the cells were collected, lysed and proteins were extracted and subjected to SDS-PAGE followed by immunoblot analysis against tyrosinase. Protein concentrations were determined using the Bradford method with BSA as a standard. • B.2.
Photographs of pellet of melanocytes that were treated with the substances for 72 h.

[3] = system: HFL-1 HDFs; assay: Cell survival with or without oxidative stress; assay type: cell-based, human; conditions: for higher survival rate as compared to control cultures: 300 µM H2O2 for 2.5 h, then additional 24 h in culture; for survival to an oxidative stress challenge: summary, versus control cells
[4] = system: middle aged and terminally senescent HFL-1 HDFs; assay: Reversal of senescent phenotype: cell number, morphology and β-galactosidase staining after 1 week of treatment; assay type: cell-based, human; conditions: for proliferation (number of cells) / β-galactosidase activity staining: 1 week; for morphology and proliferation: summary of section 3, middle aged or terminally senescent cells
Description: as §1

[5] = HFL-1 cells, 2 µg/ml, 13 consecutive weeks
[6] = Table 2, 2 µg/ml, 55 days in culture
[7] = HFL-1 cells, 0, 5 µg/ml, 13 consecutive weeks
[8] = HFL-1 cells, 5 µg/ml, 13 consecutive weeks
[9] = middle aged cells (cpd 59), 2 µg/ml, quercetin caprylate 0.5, 2 and 5 µg/ml
[10] = middle aged cells, 2 µg/ml, quercetin caprylate all three concentrations
[11] = terminally senescent cells (cpd 65), 2 µg/ml, quercetin caprylate 2 and 5 µg/ml
[12] = terminally senescent cells, quercetin 2 µg/ml, quercetin caprylate higher concentrations

Molecule | cpd [1, 5] | cpd, change versus relative diluent control [1, 5] | cpd [1, 6] | whitening of melanocyte pellet ([2]; lower concentration (5 µg/ml)) | appearance of the senescent phenotype [1] | higher survival rate as compared to control cultures [3] [%] | survival to an oxidative stress challenge [3] | proliferation (number of cells) [4, 9] | β-galactosidase activity staining [4, 10] | morphology and proliferation [4] | proliferation (number of cells) [4, 11] | β-galactosidase activity staining [4, 12] | further results
CC1(C)CC[C@]2(C(=O)O)CC[C@]3(C)C(=CC[C@@H]4[C@@]5(C)CC[C@H](O)[C@@](C)(CO)[C@@H]5CC[C@]43C)[C@@H]2C1 [Hederagenin] | 65.4 | +0.5% | 65.06 | whitening potential | – | – | – | – | – | – | – | – | –
quercetin caprylate | 66.0 | +2.8% | 64.87 | – | delay in the appearance of the senescent phenotype | ≤ 14.5 | survived better | higher proliferation rates | less positive to β-galactosidase activity staining | regained a younger morphology and were induced to limited but significant proliferation | limited but sigmificant cell proliferation | many of those cells were negative for β-gatactosidase activity | cpd [1, 7]: 65.9; cpd, change versus relative diluent control [1, 7]: +2.6%; cpd [1, 8]: 65.4; cpd, change versus relative diluent control [1, 8]: +1.9%; cpd ([1]; Table 2, 0,5 µg/ml, 55 days in culture): 65.09; cpd ([1]; Table 2, 5 µg/ml, 55 days in culture): 63.96; more population doublings as compared to the relative control cultures ([1]; summary of Table 1, quercetin caprylate 0.5, 2 and 5 µg/ml, other substances 2 µg/ml): up to 2.8%
CC1(C)[C@@H](O)CC[C@]2(C)[C@H]3C(=O)C=C4[C@H]5C[C@@](C)(C(=O)O)CC[C@]5(C)CC[C@@]4(C)[C@]3(C)CC[C@@H]12 [18α-glycyrrhetinic acid] | 67 | +2.9% | 65.02 | whitening potential | delay in the appearance of the senescent phenotype | 2 | survived better | higher proliferation rates | less positive to β-galactosidase activity staining | regained a younger morphology and were induced to limited but significant proliferation | – | – | higher survival rate as compared to diluent-treated cells ([3]; 24 h treatment, no oxidative stress): 3.5%
O=c1c(O)c(-c2ccc(O)c(O)c2)oc2cc(O)cc(O)c12 [Quercetin] | 57.24 | – | 54.39 | – | delay in the appearance of the senescent phenotype | ≤ 14.5 | survived better | higher proliferation rates | less positive to β-galactosidase activity staining | regained a younger morphology and were induced to limited but significant proliferation | limited but sigmificant cell proliferation | many of those cells were negative for β-gatactosidase activity | whitening effect compared to the other substances ([2]; 5 µg/ml and 10 µg/ml): notably more intensed; whitening of melanocyte pellet ([2]; both concentrations (5 µg/ml and 10 µg/ml)): whitening potential
